# Data: paper PMC12453121, “The combined effects of tick defensin persulcatusin with conventional antibiotics and antimicrobial proteins/peptides against Staphylococcus aureus” (Microbiology, 2025)
# “And” between values parts separate entries of the source, which are not always exact repeats. Equal values may be shown once. Read-outs that look alike come from different tables or passages of the source. Where no end group is shown, it is not given here.
# System: S. aureus ATCC 29213
# Conditions: for combined effect with IP (interpretation of FICI): named agent combined with IP, checkerboard, S. aureus ATCC 29213
# Experimental: A checkerboard assay was performed to evaluate the combined effect of IP and conventional antibiotics using the broth microdilution method [3031] with a final inoculum concentration of 5×10^5 c.f.u. ml^−1. Bacterial cells cultured in MHB at 30 °C were suspended in MHB or cation-adjusted MHB (caMHB) for daptomycin treatment. Bacterial suspensions were dispensed into 96-well round polypropylene plates (Watson Bio Lab, Tokyo, Japan) at an inoculum concentration of 5.0×10^5 c.f.u. ml^−1. […] After incubation at 30 °C, the OD of each well was measured using a microplate reader (MTP-310; Corona Electric Co., Ltd., Ibaraki, Japan) at 660 nm (OD660). […] The fractional inhibitory concentration (FIC) was calculated as the MIC of drug A in combination with drug B divided by drug A alone. The FIC index (FICI) was calculated as the sum of each FIC, and the lowest FICI for each combination was interpreted as follows: FICI of <0.5 was defined as synergy, FICI of ≥0.5 but <1 was defined as partial synergy, FICI of ≥1 but <4 was defined as an additive effect or irrelevant and FICI of ≥4 was defined as antagonistic.
# [1] = named agent combined with IP (0.25–16 µg/ml), checkerboard broth microdilution in MHB (caMHB for daptomycin), 5×10^5 c.f.u./ml, 30 °C, no growth = OD660 <0.05, lowest FICI
molecule,measurement,setting,value
CC[C@H](C)[C@H](NC(=O)[C@H](CCCCN)NC(=O)[C@H](CCC(=O)O)NC(=O)[C@H](CCCCN)NC(=O)[C@H](CO)NC(=O)[C@H](CCCCN)NC(=O)[C@H](CCCNC(=N)N)NC(=O)[C@H](Cc1ccccc1)NC(=O)[C@H](Cc1ccccc1)NC(=O)[C@H](CC(=O)O)NC(=O)CNC(=O)[C@H](CC(C)C)NC(=O)[C@@H](N)CC(C)C)C(=O)NCC(=O)N[C@@H](CCCCN)C(=O)N[C@@H](CCC(=O)O)C(=O)N[C@@H](Cc1ccccc1)C(=O)N[C@@H](CCCCN)C(=O)N[C@@H](CCCNC(=N)N)C(=O)N[C@H](C(=O)N[C@H](C(=O)N[C@@H](CCC(N)=O)C(=O)N[C@@H](CCCNC(=N)N)C(=O)N[C@H](C(=O)N[C@@H](CCCCN)C(=O)N[C@@H](CC(=O)O)C(=O)N[C@@H](Cc1ccccc1)C(=O)N[C@@H](CC(C)C)C(=O)N[C@@H](CCCNC(=N)N)C(=O)N[C@@H](CC(N)=O)C(=O)N[C@@H](CC(C)C)C(=O)N[C@H](C(=O)N1CCC[C@H]1C(=O)N[C@@H](CCCNC(=N)N)C(=O)N[C@H](C(=O)N[C@@H](CCC(=O)O)C(=O)N[C@@H](CO)C(=O)O)[C@@H](C)O)C(C)C)[C@@H](C)CC)C(C)C)[C@@H](C)CC [LL-37],FICI (fractional inhibitory concentration index),[1],0.25
same,combined effect with IP (interpretation of FICI),,synergistic
"CC1(C)S[C@@H]2[C@H](NC(=O)[C@H](N)c3ccccc3)C(=O)N2[C@H]1C(=O)O [ampicillin, Ampicillin]",FICI (fractional inhibitory concentration index),[1],0.375 and 0.38
same,combined effect with IP (interpretation of FICI),,synergistic
"CN(C)[C@@H]1C(O)=C(C(N)=O)C(=O)[C@@]2(O)C(O)=C3C(=O)c4c(O)cccc4[C@@](C)(O)[C@H]3C[C@@H]12 [tetracycline, Tetracycline]",FICI (fractional inhibitory concentration index),[1],0.75
same,combined effect with IP (interpretation of FICI),,Partial synergistic
Gentamycin,FICI (fractional inhibitory concentration index),[1],1.0
same,combined effect with IP (interpretation of FICI),,additive or irrelevant
"Nisin (ITSISLCTPGCKTGALMGCNMKTATCHCSIHVSK; also: lantibiotic: lanthionine rings and dehydro residues, not placed; UniProt P13068 24-57, looked up)",FICI (fractional inhibitory concentration index),,0.63
same,MIC in the presence of sublethal concentrations of IP compared with absence of IP,,higher
same,combined effect with IP (interpretation of FICI),,Partial synergistic
Lysostaphin,FICI (fractional inhibitory concentration index),[1],0.75
same,combined effect with IP (interpretation of FICI),,Partial synergistic
"O=C(O)c1cn(C2CC2)c2cc(N3CCNCC3)c(F)cc2c1=O [ciprofloxacin, Ciprofloxacin]",combined effect with IP (interpretation of FICI),,Partial synergistic
"CC[C@H]1OC(=O)[C@H](C)[C@@H](O[C@H]2C[C@@](C)(OC)[C@@H](O)[C@H](C)O2)[C@H](C)[C@@H](O[C@@H]2O[C@H](C)C[C@H](N(C)C)[C@H]2O)[C@](C)(O)C[C@@H](C)C(=O)[C@H](C)[C@@H](O)[C@]1(C)O [erythromycin, Erythromycin]",FICI (fractional inhibitory concentration index),[1],2.0
same,combined effect with IP (interpretation of FICI),,additive or irrelevant
"NC[C@H]1O[C@H](O[C@H]2[C@H](O)[C@@H](O[C@H]3O[C@H](CO)[C@@H](O)[C@H](N)[C@H]3O)[C@H](N)C[C@@H]2N)[C@H](O)[C@@H](O)[C@@H]1O [kanamycin, Kanamycin]",FICI (fractional inhibitory concentration index),[1],2.0
same,combined effect with IP (interpretation of FICI),,additive or irrelevant
Lysozyme,combined effect with IP (interpretation of FICI),,Partial synergistic
